Substitutions are numbered along the chain they refer to. Each block holds one molecule with its values, some of them ahead of it.
What was measured:
[1] = molecular target: T1, Aldo-keto reductase family 1 member C1 (Homo sapiens, UniProt Q04828); assay: Inhibition of recombinant human AKR1C1 expressed in Escherichia coli BL21 […] at 100 uM using S-tetralol as substrate in presence of NADP+ by UV-spectrophotometric method relative to control
T1 sequence (Q04828 whole entry): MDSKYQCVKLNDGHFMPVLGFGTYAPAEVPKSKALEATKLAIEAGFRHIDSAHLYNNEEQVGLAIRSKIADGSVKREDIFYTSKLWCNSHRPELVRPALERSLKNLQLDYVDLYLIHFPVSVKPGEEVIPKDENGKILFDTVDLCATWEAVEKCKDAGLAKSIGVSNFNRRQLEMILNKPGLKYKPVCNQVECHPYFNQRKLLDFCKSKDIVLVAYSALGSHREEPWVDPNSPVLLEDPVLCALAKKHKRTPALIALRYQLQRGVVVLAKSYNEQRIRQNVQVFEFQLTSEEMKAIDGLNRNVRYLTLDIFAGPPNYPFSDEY

[2] = molecular target: T2, AKR1C2 (Homo sapiens, UniProt P52895); assay: in vitro; details: probe S-tetralol
T2 sequence (P52895 whole entry): T1 sequence (Q04828 whole entry) with T38V, R47H, L54V, C87S, V151M, R170H, Q172L
Description: Inhibition of recombinant human AKR1C2 expressed in Escherichia coli BL21 (D3) at 200 uM using S-tetralol as substrate in presence of NADP+ by UV-spectrophotometric method relative to control

[3] = molecular target: T3, AKR1C1 (Homo sapiens, UniProt Q04828); assay: in vitro; details: probe S-tetralol
T3 sequence (Q04828 whole entry): T1 sequence (Q04828 whole entry)
Description: Inhibition of recombinant human AKR1C1 expressed in Escherichia coli BL21 (D3) at 200 uM using S-tetralol as substrate in presence of NADP+ by UV-spectrophotometric method relative to control

[4] = molecular target: T4, Aldo-keto reductase family 1 member C3 (Homo sapiens, UniProt P42330)
T4 sequence (P42330 whole entry): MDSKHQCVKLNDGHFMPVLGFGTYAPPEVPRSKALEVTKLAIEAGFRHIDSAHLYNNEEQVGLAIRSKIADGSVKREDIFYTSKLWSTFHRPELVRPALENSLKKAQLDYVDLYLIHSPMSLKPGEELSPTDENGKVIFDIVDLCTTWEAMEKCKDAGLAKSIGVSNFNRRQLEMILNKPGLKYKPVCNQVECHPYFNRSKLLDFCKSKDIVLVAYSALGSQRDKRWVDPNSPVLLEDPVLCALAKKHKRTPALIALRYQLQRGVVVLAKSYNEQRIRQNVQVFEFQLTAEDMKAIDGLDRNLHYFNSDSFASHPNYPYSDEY
Description: Inhibition of recombinant full-length human N-terminal His6-tagged AKR1C3 expressed in Escherichia coli BL21 (DE3) using phenanthrenequinone as substrate in presence of NADPH generating system

inhibition at 200 µM [2]: 66.5%
Structure (SMILES): CC(C)=CCc1cc(/C=C/C(=O)O)cc(C(=O)NCc2ccc(C)cc2)c1

inhibition at 200 µM [3]: 10.6%
Structure (SMILES): CC(C)=CCc1cc(/C=C/C(=O)O)cc(C(=O)NCc2cccc(OC(F)(F)F)c2)c1

inhibition (INH) [1]: Not Active
Structure (SMILES): COc1ccc(CNC(=O)c2cc(/C=C/C(=O)O)cc(CC=C(C)C)c2)cc1

Continued, molecule first:

Structure (SMILES): CC(C)=CCc1cc(/C=C/C(=O)O)cc(C(=O)NCc2ccc(N(C)C)cc2)c1
inhibition (INH) [1]: Not Active

Structure (SMILES): CC/C=C\C[C@H]1C(=O)CC[C@@H]1CC(=O)O [JASMONIC ACID]
Ki [4]: 24 µM

Reference: ChEMBL document CHEMBL4339191 (J Med Chem, 2019)
